Results reported in patent US20060276464A1, “Diarylsulfone sulfonamides and use thereof” (Wyeth, priority 2005, published 2006).
Where “and” joins values, the source holds several entries; their conditions need not be identical. Identical values can stand only once. Like-named read-outs stand apart in the source and are kept apart here.

Assays:
SFRP-1 [1] = target: T1, SFRP-1 (Homo sapiens, UniProt Q8N474); assay: Fluorescence polarization binding assay (competitive displacement of a probe compound from SFRP-1); settings: fluorescence anisotropy, 45 nM SFRP-1, 20 nM probe;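 note: test compound competes with a fluorescent probe held by SFRP-1, seen as a drop in probe anisotropy after incubation in darkness, with anisotropy as function of rising compound dose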
T1 sequence (Q8N474 32-314): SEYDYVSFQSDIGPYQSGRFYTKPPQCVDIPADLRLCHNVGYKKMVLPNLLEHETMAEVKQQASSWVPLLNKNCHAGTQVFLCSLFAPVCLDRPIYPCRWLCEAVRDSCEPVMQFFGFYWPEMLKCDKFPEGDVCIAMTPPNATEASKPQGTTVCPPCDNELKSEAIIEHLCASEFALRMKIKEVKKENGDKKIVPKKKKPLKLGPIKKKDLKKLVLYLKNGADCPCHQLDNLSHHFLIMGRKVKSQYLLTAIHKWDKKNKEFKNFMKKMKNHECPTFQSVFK

SFRP-1 [2] = target: T1, SFRP-1; assay: Cell-based assay for in vitro measurement of SFRP-1/SARP2 antagonist activity (U2OS cells co-transfected with 16x TCF-tk-Luciferase reporter, Wnt and hSFRP-1); settings: for fold induction at 15 µM / fold induction at 10 µM: U2OS; for fold induction at 10 µM: read-out: Fold Induction with SFRP-1, U2OS cells, single dose 10 μM, luciferase reporter, fold induction over SFRP-1 control;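 for all read-outs here: U2OS cells co-transfected with a TCF-tk luciferase reporter, a Wnt vector, hSFRP-1 or empty vector and CMV-βgal, luciferase luminescence read in cell lysates alongside βgal activity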
[3] = read-out: Fold Induction with SFRP-1, Conc 15 μM, single dose, luciferase reporter, fold induction over SFRP-1 control, cells with SFRP-1
[4] = read-out: Fold Induction without SFRP-1, Conc 15 μM, single dose, luciferase reporter, cells without SFRP-1 (specificity control)
[5] = read-out: Fold Induction with SFRP-1, Conc 15 μM, with SFRP-1, fold induction over SFRP-1 control, single dose
[6] = read-out: Fold Induction without SFRP-1, Conc 15 μM, without SFRP-1, single dose

SMILES	IC50 (SFRP-1 [1])	fold induction at 15 µM (SFRP-1 [2]; [3])	fold induction at 15 µM (SFRP-1 [2]; [4])	EC50 (SFRP-1 [2]) [nM]	fold induction at 10 µM (SFRP-1 [2])	fold induction at 15 µM (SFRP-1 [2]; [5])	fold induction at 15 µM (SFRP-1 [2]; [6])
CC(C)c1ccc(S(=O)(=O)c2ccc(F)cc2)cc1S(=O)(=O)NCCn1ccnc1C(C)C [Example 588, 5-[(4-fluorophenyl)sulfonyl]-2-isopropyl-N-[2-(2-isopropyl-1H-imidazol-1-yl)ethyl]benzenesulfonamide]	400 nM	3.6	1.7	–	–	–	–
CC(C)c1ccc(S(=O)(=O)c2ccc(N(C)C)cc2)cc1S(=O)(=O)NC1CCOCC1 [Example 544, 5-{[4-(dimethylamino)phenyl]sulfonyl}-2-isopropyl-N-(tetrahydro-2H-pyran-4-yl)benzenesulfonamide]	800 nM and 1700 nM	2.7	1.2	–	–	–	–
O=C(O)CCCC(=O)N1CCC(CNS(=O)(=O)c2cc(S(=O)(=O)c3ccccc3)ccc2C(F)(F)F)CC1 [Example 903, 5-oxo-5-{4-[({[5-(phenylsulfonyl)-2-(trifluoromethyl)phenyl]sulfonyl}amino)methyl]piperidin-1-yl}pentanoic acid]	70 nM	–	–	795	3.5	–	–
CC(C)c1ccc(S(=O)(=O)c2ccc(F)cc2)cc1S(=O)(=O)NC1CCN(C(=O)N2CCOCC2)CC1 [Example 572, 5-[(4-fluorophenyl)sulfonyl]-2-isopropyl-N-[1-(morpholin-4-ylcarbonyl)piperidin-4-yl]benzenesulfonamide]	500 nM	1.7	1	–	–	–	–
CC(C)(C)OC(=O)N[C@H]1CC[C@H](NS(=O)(=O)c2cc(S(=O)(=O)c3ccccc3)ccc2C(F)(F)F)CC1 [Example 901, tert-butyl [trans-4-({[5-(phenylsulfonyl)-2-(trifluoromethyl)phenyl]sulfonyl}amino)cyclohexyl]carbamate]	450 nM	–	–	224	3.4	–	–
O=S(=O)(NCC(O)c1cccnc1)c1cc(S(=O)(=O)c2ccccc2)ccc1C(F)(F)F (stereo not shown) [Example 741, N-(2-hydroxy-2-pyridin-3-ylethyl)-5-(phenylsulfonyl)-2-(trifluoromethyl)benzenesulfonamide]	300 nM	–	–	1000	4.8	–	–
Cc1ccc(C(=O)N2CCC(NS(=O)(=O)c3cc(S(=O)(=O)c4ccccc4)ccc3C)CC2)cc1 [Example 468, 2-methyl-N-[1-(4-methylbenzoyl)piperidin-4-yl]-5-(phenylsulfonyl)benzenesulfonamide]	1000 nM	–	–	–	–	2	1.2
CC(C)(C)OC(=O)N1CC[C@H](NS(=O)(=O)c2cc(S(=O)(=O)c3ccccc3)ccc2C(F)(F)F)C1 [Example 794, tert-butyl(3S)-3-({[5-(phenylsulfonyl)-2-(trifluoromethyl)phenyl]sulfonyl}amino)pyrrolidine-1-carboxylate]	100 nM	–	–	534	3.3	–	–
COc1ccccc1OC(=O)N1CCC(NS(=O)(=O)c2cc(S(=O)(=O)c3ccccc3)ccc2C)CC1 [Example 489, 2-methoxyphenyl 4-({[2-methyl-5-(phenylsulfonyl)phenyl]sulfonyl}amino)piperidine-1-carboxylate]	1000 nM	2.4	1.1	–	–	–	–
O=S(=O)(NCCc1ccc(-c2nn[nH]n2)cc1)c1cc(S(=O)(=O)c2ccccc2)ccc1C(F)(F)F [Example 984, 5-(phenylsulfonyl)-N-{2-[4-(2H-tetrazol-5-yl)phenyl]ethyl}-2-(trifluoromethyl)benzenesulfonamide]	200 nM	–	–	657	–	–	–
CC(C)(C)OC(=O)NCCNS(=O)(=O)c1cc(S(=O)(=O)c2ccccc2)ccc1C(F)(F)F [Example 742, tert-Butyl[2-({[5-(phenylsulfonyl)-2-(trifluoromethyl)phenyl]sulfonyl}amino)ethyl]carbamate]	280 nM	–	–	–	2.4	–	–
CN(CCNS(=O)(=O)c1cc(S(=O)(=O)c2ccccc2)ccc1C(F)(F)F)C(=O)NC1CCN(C(=O)OC(C)(C)C)CC1 [Example 866]	800 nM	–	–	–	4.6	–	–
CC(C)c1ccc(S(=O)(=O)c2ccc(F)cc2)cc1S(=O)(=O)NCCc1ccc[n+]([O-])c1 [Example 652, 5-[(4-fluorophenyl)sulfonyl]-2-isopropyl-N-[2-(1-oxidopyridin-3-yl)ethyl]benzenesulfonamide]	800 nM and 700 nM	3.8	1	–	–	–	–
CN(CCNS(=O)(=O)c1cc(S(=O)(=O)c2ccccc2)ccc1C(F)(F)F)C(=O)N[C@@H]1CCNC1 [Example 1008, N-[2-(methyl{[(3R)-pyrrolidin-3-ylamino]carbonyl}amino)ethyl]-5-(phenylsulfonyl)-2-(trifluoromethyl)benzenesulfonamide]	3000 nM	–	–	936	–	–	–
Cc1ccc(S(=O)(=O)c2ccc(NCC3CC3)cc2)cc1S(=O)(=O)NCCCn1ccnc1 [Example 368, 5-({4-[(cyclopropylmethyl)amino]phenyl}sulfonyl)-N-[3-(1H-imidazol-1-yl)propyl]-2-methylbenzenesulfonamide]	900 nM	–	–	–	–	2.5	1
CC(C)c1ccc(S(=O)(=O)c2cccc(C(F)(F)F)c2)cc1S(=O)(=O)NCCc1ccccn1 [Example 508, 2-isopropyl-N-(2-pyridin-2-ylethyl)-5-{[3-(trifluoromethyl)phenyl]sulfonyl}benzenesulfonamide]	1300 nM	2.3	0.9	–	–	–	–
N#CCCNS(=O)(=O)c1cc(S(=O)(=O)c2cccc(Cl)c2)ccc1C(F)(F)F [Example 752, 5-[(3-chlorophenyl)sulfonyl]-N-(2-cyanoethyl)-2-(trifluoromethyl)benzenesulfonamide]	400 nM	–	–	1090	3.8	–	–
O=S(=O)(NC1CCNCC1)c1cc(S(=O)(=O)c2ccc(NCCO)cc2)ccc1C(F)(F)F [Example 844, 5-({4-[(2-hydroxyethyl)amino]phenyl}sulfonyl)-N-piperidin-4-yl-2-(trifluoromethyl)benzenesulfonamide]	160 nM	–	–	500	4.4	–	–
O=S(=O)(NCCc1cccnc1)c1cc(S(=O)(=O)c2ccccc2)ccc1Cl [Example 640, 2-chloro-5-(phenylsulfonyl)-N-(2-pyridin-3-ylethyl)benzenesulfonamide]	1200 nM	3.5	1.2	–	–	–	–
CC(C)(C)OC(=O)N1CCC(NC(=O)NCCNS(=O)(=O)c2cc(S(=O)(=O)c3ccccc3)ccc2C(F)(F)F)CC1 [Example 1046, tert-butyl 4-[({[2-({[5-(phenylsulfonyl)-2-(trifluoromethyl)phenyl]sulfonyl}amino)ethyl]amino}carbonyl)amino]piperidine-1-carboxylate]	800 nM	–	–	3440	–	–	–
O=C(c1ccccc1OC(F)(F)F)N1CCC(NS(=O)(=O)c2cc(S(=O)(=O)c3ccccc3)ccc2C(F)(F)F)CC1 [Example 758, 5-(phenylsulfonyl)-N-{1-[2-(trifluoromethoxy)benzoyl]piperidin-4-yl}-2-(trifluoromethyl)benzenesulfonamide]	300 nM	–	–	582	3.4	–	–
Cc1cc(C)c(S(=O)(=O)c2ccccc2)cc1S(=O)(=O)NCC(O)c1ccccn1 (stereo not shown) [Example 729, N-(2-hydroxy-2-pyridin-2-ylethyl)-2,4-dimethyl-5-(phenylsulfonyl)benzenesulfonamide]	15000 nM	–	–	–	1.7	–	–
CC(C)c1ccc(S(=O)(=O)c2cccc3cccnc23)cc1S(=O)(=O)NCCc1ccccn1 [Example 510, 2-isopropyl-N-(2-pyridin-2-ylethyl)-5-(quinolin-8-ylsulfonyl)benzenesulfonamide]	900 nM	1.9	1.1	–	–	–	–
Cc1c(C#N)cccc1S(=O)(=O)c1ccc(C(C)C)c(S(=O)(=O)NCCc2ccccn2)c1 [Example 593, 5-[(3-cyano-2-methylphenyl)sulfonyl]-2-isopropyl-N-(2-pyridin-2-ylethyl)benzenesulfonamide]	900 nM	2	1.1	–	–	–	–
CC(C)NC(=O)CN1CCC(NS(=O)(=O)c2cc(S(=O)(=O)c3ccccc3)ccc2C(F)(F)F)CC1 [Example 1086, N-isopropyl-2-[4-({[5-(phenylsulfonyl)-2-(trifluoromethyl)phenyl]sulfonyl}amino)piperidin-1-yl]acetamide]	270 nM	–	–	492	–	–	–
Cc1ccc(S(=O)(=O)c2ccccc2)cc1S(=O)(=O)NC1CCCC1 [Example 399, N-cyclopentyl-2-methyl-5-(phenylsulfonyl)benzenesulfonamide]	3000 nM	–	–	–	–	2.5	1.1
O=C(O)COc1ccc2c(c1)CC(NS(=O)(=O)c1cc(S(=O)(=O)c3ccccc3)ccc1C(F)(F)F)C2 (stereo not shown) [Example 1031, {[2-({[5-(phenylsulfonyl)-2-(trifluoromethyl)phenyl]sulfonyl}amino)-2,3-dihydro-1H-inden-5-yl]oxy}acetic acid]	20 nM	–	–	85	–	–	–
